Data reported in PubChem BioAssay (NCI).
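Cells were grown in 96-well plates and exposed to each compound for 48 hours at five concentrations; endpoints were interpolated linearly between bracketing concentrations, or set to the highest concentration if not reached. At the GI50, growth is halved. At the TGI there is no net growth.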

Columns and labels:
Experiment in all cases: NCI tumour cell line growth inhibition, 48 h
SW-620 colon = test system: SW-620 colon
786-0 renal = test system: 786-0 renal
KM12 colon = test system: KM12 colon
SNB-75 CNS = test system: SNB-75 CNS
OVCAR-8 ovarian = test system: OVCAR-8 ovarian
HCC-2998 colon = test system: HCC-2998 colon
UACC-62 melanoma = test system: UACC-62 melanoma
HS 578T breast = test system: HS 578T breast
NCI-H23 lung = test system: NCI-H23 lung
HT29 colon = test system: HT29 colon
OVCAR-4 ovarian = test system: OVCAR-4 ovarian
OVCAR-3 ovarian = test system: OVCAR-3 ovarian
IGROV1 ovarian = test system: IGROV1 ovarian
SK-OV-3 ovarian = test system: SK-OV-3 ovarian
MOLT-4 leukemia = test system: MOLT-4 leukemia
A498 renal = test system: A498 renal
SR leukemia = test system: SR leukemia
RPMI-8226 leukemia = test system: RPMI-8226 leukemia
A549 NSCLC = test system: A549 NSCLC
SF-295 CNS = test system: SF-295 CNS
TK-10 renal = test system: TK-10 renal
UO-31 renal = test system: UO-31 renal
HL-60(TB) leukemia = test system: HL-60(TB) leukemia
UACC-257 melanoma = test system: UACC-257 melanoma
HOP-92 NSCLC = test system: HOP-92 NSCLC
SF-268 CNS = test system: SF-268 CNS
SK-MEL-28 melanoma = test system: SK-MEL-28 melanoma
CCRF-CEM leukemia = test system: CCRF-CEM leukemia
M14 melanoma = test system: M14 melanoma
HCT-116 colon = test system: HCT-116 colon
MCF7 breast = test system: MCF7 breast
OVCAR-5 ovarian = test system: OVCAR-5 ovarian
K-562 leukemia = test system: K-562 leukemia
LOX IMVI melanoma = test system: LOX IMVI melanoma
NCI-H522 lung = test system: NCI-H522 lung
MDA-MB-435 = test system: MDA-MB-435
SNB-19 CNS = test system: SNB-19 CNS
NCI/ADR-RES ovarian = test system: NCI/ADR-RES ovarian
RXF 393 renal = test system: RXF 393 renal
ACHN renal = test system: ACHN renal
DU-145 prostate = test system: DU-145 prostate
PC-3 prostate = test system: PC-3 prostate
MDA-MB-231 breast = test system: MDA-MB-231 breast
MALME-3M melanoma = test system: MALME-3M melanoma
SF-539 CNS = test system: SF-539 CNS
SK-MEL-2 melanoma = test system: SK-MEL-2 melanoma
U251 CNS = test system: U251 CNS
SK-MEL-5 melanoma = test system: SK-MEL-5 melanoma
HCT-15 colon = test system: HCT-15 colon
NCI-H460 lung = test system: NCI-H460 lung
SN12C renal = test system: SN12C renal
T-47D breast = test system: T-47D breast
BT-549 breast = test system: BT-549 breast
EKVX NSCLC = test system: EKVX NSCLC
NCI-H226 lung = test system: NCI-H226 lung
COLO 205 colon = test system: COLO 205 colon

## CCCCCCC/C=C/[C@H]1O[C@]23C(=O)C[C@@]4(C[C@@H](OC5OC(CO)C(O)C(O)C5O)C[C@@H]4[C@H]2C=C1C)OC3=O (some centres not stated)
SW-620 colon
  GI50: 3.56 µM
  TGI: 11.7 µM
786-0 renal
  GI50: 4.9 µM
  TGI: 10.1 µM
KM12 colon
  GI50: 4.66 µM
  TGI: 11.6 µM
SNB-75 CNS
  GI50: 2.84 µM
  TGI: 7.17 µM
OVCAR-8 ovarian
  GI50: 6.08 µM
  TGI: > 33.3 µM
HCC-2998 colon
  GI50: 4.44 µM
  TGI: 9.39 µM
UACC-62 melanoma
  GI50: 4.47 µM
  TGI: 10.9 µM
HS 578T breast
  GI50: 9.04 µM
  TGI: > 33.3 µM
NCI-H23 lung
  GI50: 5.75 µM
  TGI: 15.8 µM
HT29 colon
  GI50: 4.18 µM
  TGI: 11.9 µM
OVCAR-4 ovarian
  GI50: 3.37 µM
  TGI: 8.07 µM
OVCAR-3 ovarian
  GI50: 2.28 µM
  TGI: 6.71 µM
IGROV1 ovarian
  GI50: 5.67 µM
  TGI: 26.7 µM
SK-OV-3 ovarian
  GI50: 7.13 µM
  TGI: 21.6 µM
MOLT-4 leukemia
  GI50: 1.31 µM
  TGI: 14.4 µM
A498 renal
  GI50: 4.78 µM
  TGI: 9.43 µM
SR leukemia
  GI50: 1.35 µM
  TGI: 13.6 µM
RPMI-8226 leukemia
  GI50: 1.28 µM
  TGI: > 33.3 µM
A549 NSCLC
  GI50: 8.48 µM
  TGI: > 33.3 µM
SF-295 CNS
  GI50: 5.12 µM
  TGI: 12.7 µM
TK-10 renal
  GI50: 6.14 µM
  TGI: 12.6 µM
UO-31 renal
  GI50: 3.61 µM
  TGI: 7.57 µM
HL-60(TB) leukemia
  GI50: 1.2 µM
  TGI: 7.53 µM
UACC-257 melanoma
  GI50: 5.21 µM
  TGI: 12.4 µM
HOP-92 NSCLC
  GI50: 3.77 µM
  TGI: 11.6 µM
SF-268 CNS
  GI50: 5.12 µM
  TGI: 11.1 µM
SK-MEL-28 melanoma
  GI50: 5.05 µM
  TGI: 10.3 µM
CCRF-CEM leukemia
  GI50: 1.19 µM
  TGI: > 33.3 µM
M14 melanoma
  GI50: 3.58 µM
  TGI: 8.43 µM
HCT-116 colon
  GI50: 1.68 µM
  TGI: 6.03 µM
MCF7 breast
  GI50: 1.36 µM
  TGI: 26.9 µM
OVCAR-5 ovarian
  GI50: 6.06 µM
  TGI: 14.7 µM
K-562 leukemia
  GI50: 2.2 µM
  TGI: 18.5 µM
LOX IMVI melanoma
  GI50: 2.4 µM
  TGI: 6.84 µM
NCI-H522 lung
  GI50: 1.7 µM
  TGI: 8.64 µM
MDA-MB-435
  GI50: 2.02 µM
  TGI: 7.68 µM
SNB-19 CNS
  GI50: 5.25 µM
  TGI: 10.2 µM
NCI/ADR-RES ovarian
  GI50: 6.99 µM
  TGI: > 33.3 µM
RXF 393 renal
  GI50: 4.41 µM
  TGI: 9.15 µM
ACHN renal
  GI50: 4.31 µM
  TGI: 8.65 µM
DU-145 prostate
  GI50: 4.59 µM
  TGI: 9.87 µM
PC-3 prostate
  GI50: 3.81 µM
  TGI: 12.9 µM
MDA-MB-231 breast
  GI50: 6.47 µM
  TGI: 16.5 µM
MALME-3M melanoma
  GI50: 4.82 µM
  TGI: 9.87 µM
SF-539 CNS
  GI50: 5.1 µM
  TGI: 9.99 µM
SK-MEL-2 melanoma
  GI50: 5.33 µM
  TGI: 15.1 µM
U251 CNS
  GI50: 3.55 µM
  TGI: 7.63 µM
SK-MEL-5 melanoma
  GI50: 4.88 µM
  TGI: 9.37 µM
HCT-15 colon
  GI50: 2.53 µM
  TGI: 9.43 µM
NCI-H460 lung
  GI50: 6.63 µM
  TGI: 16.8 µM
SN12C renal
  GI50: 5.46 µM
  TGI: 14.9 µM
T-47D breast
  GI50: 0.911 µM
  TGI: 9.69 µM
BT-549 breast
  GI50: 2.06 µM
  TGI: 12.9 µM
EKVX NSCLC
  GI50: 6.72 µM
  TGI: 17.8 µM
NCI-H226 lung
  GI50: 5.85 µM
  TGI: 13.4 µM
COLO 205 colon
  GI50: 7.1 µM
  TGI: 17.8 µM
